For orientation: IC50 means the concentration at which inhibition is half-maximal.

Read-outs that look alike come from different tables or passages of the source. Some results are limits rather than exact numbers.

What all share (type): cell-based
One test deals with T1, M2 (Homo sapiens, UniProt P08172).
T1 sequence (P08172 1-466): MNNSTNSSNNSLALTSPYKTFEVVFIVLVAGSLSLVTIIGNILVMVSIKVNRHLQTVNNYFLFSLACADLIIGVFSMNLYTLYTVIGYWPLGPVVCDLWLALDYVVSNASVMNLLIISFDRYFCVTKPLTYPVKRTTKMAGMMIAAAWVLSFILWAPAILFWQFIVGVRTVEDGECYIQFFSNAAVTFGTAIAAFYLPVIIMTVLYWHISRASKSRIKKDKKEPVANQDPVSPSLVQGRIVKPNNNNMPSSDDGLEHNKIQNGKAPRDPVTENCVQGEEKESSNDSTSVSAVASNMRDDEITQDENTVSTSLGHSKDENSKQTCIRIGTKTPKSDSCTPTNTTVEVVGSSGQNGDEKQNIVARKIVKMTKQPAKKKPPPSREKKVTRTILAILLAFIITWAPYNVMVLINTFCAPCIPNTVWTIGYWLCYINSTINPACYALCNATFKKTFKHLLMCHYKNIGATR
Description: In vitro functional assay of muscarinic acetylcholine receptor activity, M2. On the procedure: [The procedure below names another target; the source lists this target under the same test.] (§1) CHO-K1 cells stably expressing human M1 receptor with Aequorin (Perkin Elmer) were grown in F12 media, 10% FBS with 0.4 mg/mL geneticin and […]. Cells were grown to confluence and frozen down to be assayed at a later date. On the day of the experiment cells were thawed in a 37° C. water bath, resuspended in DMEM/HAM's F12 with HEPES (Invitrogen)+0.1% protease-free BSA (assay buffer), and spun down to remove freezing media. After centrifugation, supernatant was removed and 12 mL of assay buffer was added. Coelenterazine h (Promega) was added to the cells at a final concentration of 5 uM and incubated for 4 hours at room temperature in the dark. Compound master plate-96 deep well (Corning) were formatted in a 8-point DRC in assay buffer with 0.2% DMSO at a starting concentration of 60 uM (2×). After 4 hours of incubation, cells were plated at a concentration of 5×10^5 cells/well in 96 well white-walled, tissue culture-treated, clear-bottom plates (VWR). Compounds were added to the daughter plate, and cells plus compound were incubated at room temperature for 30 minutes in the dark.
(§2) Calcium flux was measured using the FlexStation 3 (Molecular Devices). To measure the antagonist dose-response, the EC80 of Acetylcholine was injected to the daughter plate using the automated compound transfer function of the Flex Station, and the increase in luminescence was measured over time. Antagonist activity was analyzed as a concentration dependent decrease in the EC80 acetylcholine response. Dose response curves were generated using Prism (GraphPad Software). The IC50 of the compounds was calculated from the dose response curve.

A further test concerns the target T2, human M1 receptor (Homo sapiens, UniProt P11229).
T2 sequence (P11229 1-460): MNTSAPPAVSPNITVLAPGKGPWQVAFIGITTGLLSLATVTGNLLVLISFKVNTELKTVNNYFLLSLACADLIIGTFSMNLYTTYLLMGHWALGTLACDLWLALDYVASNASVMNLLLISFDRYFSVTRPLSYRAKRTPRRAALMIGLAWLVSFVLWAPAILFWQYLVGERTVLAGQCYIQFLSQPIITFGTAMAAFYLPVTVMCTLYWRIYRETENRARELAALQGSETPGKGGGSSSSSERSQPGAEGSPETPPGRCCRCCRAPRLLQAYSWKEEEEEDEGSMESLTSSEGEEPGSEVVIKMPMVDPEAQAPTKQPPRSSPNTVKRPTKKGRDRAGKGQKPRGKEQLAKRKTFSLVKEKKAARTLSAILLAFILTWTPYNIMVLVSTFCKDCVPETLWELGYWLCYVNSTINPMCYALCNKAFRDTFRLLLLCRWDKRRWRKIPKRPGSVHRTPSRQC
Put plainly: In vitro functional assay of muscarinic acetylcholine receptor activity (aequorin calcium flux, antagonist mode vs EC80 acetylcholine), M1. On the procedure: as §1, §2
(In general: A change in cytosolic calcium serves as a functional read-out for many receptors and channels.)

Another test deals with M3 (Homo sapiens, UniProt P20309). Description: In vitro functional assay of muscarinic acetylcholine receptor activity, M3. As to conditions: antagonist IC50 at M3; read-out: M3 IC50. The protocol:
[The procedure below names another target; the source lists this target under the same test.] as §1, §2

Setting [1] is: antagonist IC50 at M2, read-out: M2 IC50.
Setting [2] is: CHO-K1 cells stably expressing human M1 receptor with Aequorin, decrease in EC80 acetylcholine response, read-out: M1 IC50.

Sequence of M3 (P20309 whole entry): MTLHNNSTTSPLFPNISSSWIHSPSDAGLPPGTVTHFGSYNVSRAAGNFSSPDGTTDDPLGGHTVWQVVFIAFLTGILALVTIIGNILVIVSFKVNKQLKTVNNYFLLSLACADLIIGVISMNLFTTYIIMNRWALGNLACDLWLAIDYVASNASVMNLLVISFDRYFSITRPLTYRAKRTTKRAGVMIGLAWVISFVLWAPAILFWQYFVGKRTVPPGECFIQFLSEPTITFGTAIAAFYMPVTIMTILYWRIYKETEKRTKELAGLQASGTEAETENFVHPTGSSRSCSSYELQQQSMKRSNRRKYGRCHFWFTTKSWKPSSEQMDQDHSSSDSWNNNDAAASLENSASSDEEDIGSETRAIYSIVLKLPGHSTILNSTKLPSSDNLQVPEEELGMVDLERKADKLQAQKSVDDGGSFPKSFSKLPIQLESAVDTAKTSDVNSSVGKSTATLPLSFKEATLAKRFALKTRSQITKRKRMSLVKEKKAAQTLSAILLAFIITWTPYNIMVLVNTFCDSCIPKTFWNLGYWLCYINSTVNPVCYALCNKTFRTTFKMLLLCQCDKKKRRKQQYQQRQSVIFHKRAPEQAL

With `O=C(COCc1cccc2ncccc12)N1C[C@H]2CC[C@@H](C1)N2c1ccc(F)cn1` [Example 1, 1-((1R,5S)-8-(5-fluoropyridin-2-yl)-3,8-diazabicyclo[3.2.1]octan-3-yl)-2-(quinolin-5-ylmethoxy)ethan-1-one], the figures for the IC50 at M2 (setting [1]), at human M1 receptor and on M3 were 1000 to 10000 nM, < 100 nM and > 10000 nM, respectively.
Take `O=C(CC1CN(c2cccc3ncccc23)C1)N1C[C@H]2CC[C@@H](C1)N2c1ccc(F)cn1` [Example 2, 1-((1R,5S)-8-(5-fluoropyridin-2-yl)-3,8-diazabicyclo[3.2.1]octan-3-yl)-2-(1-(quinolin-5-yl)azetidin-3-yl)ethan-1-one]: the IC50 at M2 (setting [1]) was 1000 to 10000 nM; on human M1 receptor (setting [2]), 1000 to 10000 nM; at M3, > 10000 nM.
As for `O=C(N1CC(Oc2cccc3cnccc23)C1)N1C[C@H]2CC[C@@H](C1)N2c1ccc(F)cn1` [Example 3, ((1R,5S)-8-(5-fluoropyridin-2-yl)-3,8-diazabicyclo[3.2.1]octan-3-yl)(3-(isoquinolin-5-yloxy)azetidin-1-yl)methanone], the half-maximal inhibitory concentration (IC50) against M2 is 100 to 1000 nM; on human M1 receptor (setting [2]), > 10000 nM; at M3, 1000 to 10000 nM.
With `O=C(CCCc1cccc2ncccc12)N1CCN(c2ccncc2)CC1` [Example 4, 1-(4-(pyridin-4-yl)piperazin-1-yl)-4-(quinolin-5-yl)butan-1-one], the results for the IC50 at M2 (setting [1]), at human M1 receptor (setting [2]) and at M3 were 1000 to 10000 nM, < 100 nM and 1000 to 10000 nM, respectively.
As for `CC1CN(c2ccc(F)cn2)CCN1C(=O)[C@H]1C[C@H](Oc2cccc3ncsc23)C1` (stereo partly drawn) [Example 5, ((1R,3R)-3-(benzo[d]thiazol-7-yloxy)cyclobutyl)(4-(5-fluoropyridin-2-yl)-2-methylpiperazin-1-yl)methanone], the IC50 at M2 (setting [1]), on human M1 receptor (setting [2]) and on M3 was > 10000 nM throughout.
In the case of `O=C(C1CN(Cc2cccc3ncsc23)C1)N1C[C@H]2CC[C@@H](C1)N2c1ccncc1F` [Example 7], the 50% inhibitory concentration (IC50) is > 10000 nM on M2 (setting [1]), 1000 to 10000 nM on human M1 receptor (setting [2]) and > 10000 nM at M3.
Turning to `O=C(CCNCc1cccc2ncsc12)N1C[C@H]2CC[C@@H](C1)N2c1ccncc1F` [Example 8, 3-((benzo[d]thiazol-7-ylmethyl)amino)-1-((1R,5S)-8-(3-fluoropyridin-4-yl)-3,8-diazabicyclo[3.2.1]octan-3-yl)propan-1-one], the IC50 at M2 (setting [1]) was 1000 to 10000 nM; on human M1 receptor it was < 100 nM; on M3 it was 1000 to 10000 nM.
For the compound `O=C(C1CC1COc1cccc2ncsc12)N1C[C@H]2CC[C@@H](C1)N2c1ccncc1F` (stereo partly drawn) [Example 9, (2-((benzo[d]thiazol-7-yloxy)methyl)-cyclopropyl)((1R,5S)-8-(3-fluoropyridin-4-yl)-3,8-diazabicyclo[3.2.1]octan-3-yl)methanone], the IC50 at M2 (setting [1]) is 1000 to 10000 nM; at human M1 receptor (setting [2]), > 10000 nM; on M3 it was 1000 to 10000 nM.
With `O=C(CCNCc1cccc2ncccc12)N1C[C@H]2CC[C@@H](C1)N2c1ccncc1F` [Example 10, 1-((1R,5S)-8-(3-fluoropyridin-4-yl)-3,8-diazabicyclo[3.2.1]octan-3-yl)-3-((quinolin-5-ylmethyl)amino)propan-1-one], the values for the half-maximal inhibitory concentration (IC50) at M2 (setting [1]), on human M1 receptor (setting [2]) and on M3 were > 10000 nM, 1000 to 10000 nM and > 10000 nM, respectively.
Take `O=C(COCCc1cccc2ncccc12)N1C[C@H]2CC[C@@H](C1)N2c1ccncc1F` [Example 11, 1-((1R,5S)-8-(3-fluoropyridin-4-yl)-3,8-diazabicyclo-[3.2.1]octan-3-yl)-2-(2-(quinolin-5-yl)ethoxy)ethan-1-one]: the IC50 on M2 (setting [1]) is 1000 to 10000 nM; on human M1 receptor, 100 to 1000 nM; at M3 it was > 10000 nM.
For `O=C(CCOCc1cccc2nccn12)N1C[C@H]2CC[C@@H](C1)N2c1ccncc1F` [Example 12, 1-((1R,5S)-8-(3-fluoropyridin-4-yl)-3,8-diazabicyclo[3.2.1]octan-3-yl)-3-(imidazo[1,2-a]pyridin-5-ylmethoxy)propan-1-one] the same measures were 1000 to 10000 nM, 100 to 1000 nM and > 10000 nM.
Turning to `Cc1cc(F)cnc1N1CCN(C(=O)CNCc2cccc3ncccc23)[C@@H](C)C1` [Example 13, 1-[(2S)-4-(5-fluoro-3-methylpyridin-2-yl)-2-methylpiperazin-1-yl]-2-[[(quinolin-5-yl)methyl]amino]ethanone], the IC50 lay in the range of 1000 to 10000 nM on M2 (setting [1]), 100 to 1000 nM on human M1 receptor (setting [2]) and 1000 to 10000 nM on M3.
For `O=C(CCNCc1cccc2nccn12)N1CC2CCC(C1)N2c1ccncc1F` [Example 14, 1-[8-(3-fluoropyridin-4-yl)-3,8-diazabicyclo[3.2.1]octan-3-yl]-3-[([imidazo[1,2-a]pyridin-5-yl]methyl)amino]propan-1-one], the IC50 at M2 (setting [1]) was > 10000 nM; on human M1 receptor it was 100 to 1000 nM; on M3, > 10000 nM.
Take `O=C(CNCCc1cccc2ncsc12)N1CC2CCC(C1)N2c1ccncc1F` [Example 15, 2-[[2-(1,3-benzothiazol-7-yl)ethyl]amino]-1-[8-(3-fluoropyridin-4-yl)-3,8-diazabicyclo[3.2.1]octan-3-yl]ethan-1-one]: the concentration for half-maximal inhibition (IC50) on M2 (setting [1]) was 1000 to 10000 nM; at human M1 receptor, 100 to 1000 nM; at M3, > 10000 nM.
For the compound `O=C(CCS(=O)(=O)c1cccc2ncsc12)N1CCN(c2ccncc2F)CC1` [Example 16, 3-(benzo[d]thiazol-7-ylsulfonyl)-1-(4-(3-fluoropyridin-4-yl)piperazin-1-yl)propan-1-one], the figures for the IC50 at M2 (setting [1]), at human M1 receptor (setting [2]) and on M3 were 1000 to 10000 nM, 100 to 1000 nM and > 10000 nM, respectively.
On the same counts, the results for `COc1cnc2cccc(S(=O)(=O)CCCC(=O)N3CCN(c4ncc(F)cc4C)C[C@@H]3C)c2c1` [Example 17, (S)-1-(4-(5-fluoro-3-methylpyridin-2-yl)-2-methylpiperazin-1-yl)-4-((3-methoxyquinolin-5-yl)sulfonyl)butan-1-one] are 100 to 1000 nM, 100 to 1000 nM and 1000 to 10000 nM.
For `Cc1cc(F)cnc1N1CCN(C(=O)CCS(=O)(=O)c2cccc3ncsc23)[C@@H](C)C1` [Example 18, 3-(1,3-benzothiazole-7-sulfonyl)-1-[(2S)-4-(5-fluoro-3-methylpyridin-2-yl)-2-methylpiperazin-1-yl]propan-1-one] the same measures were 1000 to 10000 nM, < 100 nM and 1000 to 10000 nM.
Take `C[C@@H]1CN(c2ccncc2Cl)CCN1C(=O)CCS(=O)(=O)c1cccc2ncsc12` [Example 19, 3-(1,3-benzothiazole-7-sulfonyl)-1-[(2R)-4-(3-chloropyridin-4-yl)-2-methylpiperazin-1-yl]propan-1-one]: the IC50 on M2 (setting [1]) was 100 to 1000 nM; at human M1 receptor (setting [2]), < 100 nM; on M3, > 10000 nM.
For `C[C@H]1CN(c2ccnc(N)c2)CCN1C(=O)CCS(=O)(=O)c1cccc2ncsc12` [Example 21, (S)-1-(4-(2-aminopyridin-4-yl)-2-methylpiperazin-1-yl)-3-(benzo[d]thiazol-7-ylsulfonyl)propan-1-one] the same measures were 100 to 1000 nM, < 100 nM and 1000 to 10000 nM.
On the same counts, the results for `O=C(CCS(=O)(=O)c1cccc2ncsc12)N1CCC(c2ccc(C(F)(F)F)cn2)CC1` [Example 22, 3-(1,3-benzothiazole-7-sulfonyl)-1-[4-[5-(trifluoromethyl)pyridin-2-yl]piperidin-1-yl]propan-1-one] are 1000 to 10000 nM, 100 to 1000 nM and 1000 to 10000 nM.

The values are drawn from patent publication US11512090B2, “Muscarinic acetylcholine M1 receptor antagonists” (PIPELINE THERAPEUTICS, INC., priority 2018, dated 2022).
